These results are taken from article PMC12077799, “Fragment-based drug discovery for transthyretin kinetic stabilisers using a novel capillary zone electrophoresis method” (PLOS One, 2025).

One test addresses T1, TTR (Homo sapiens, UniProt P02766).
T1 construct: purchased SCIPAC (Sittingbourne, Kent, UK) P171-1
Briefly: Induced near-UV circular dichroism of ligand on TTR binding. The note with it: induced CD signal 280–320 nm, TTR 13.62 μM. On the procedure: CD experiments were conducted in Diamond Light Source (Oxon, UK) beamline B23 installed with an Olis™ DSM 20 CD spectrophotometer. CD Buffer (10 mM Tris-HCl, 5 mM NaCl, pH 8.0) was prepared and loaded (450 μL) into a UV cuvette (10 mm path length). The near-UV (260–380 nm) CD spectrum of the solution was measured. 1 μL of SFL001535 10 mM DMSO stock was added into the cuvette and mixed by inversion. The CD spectrum of this solution was measured again. Contents of the cuvette containing SFL001535 in buffer were removed and the cuvette was washed with nitric acid. CD Buffer containing 13.62 μM of TTR was loaded into the cuvette and the near-UV CD spectrum of TTR was obtained (measured 10 times). A total of 8 μL of SFL001535 10 mM stock was added to the solution in 4 step additions (1 + 1 + 2 + 4 μL) and the CD spectrum were measured after each addition. The induced CD of SFL001535 was calculated by subtracting the CD spectrum of TTR alone.
In general terms: Circular dichroism is widely used to follow secondary structure.

The target of test [1] is T2, TTR in undiluted normal human reference plasma (Homo sapiens, UniProt P02766).
T2 construct: The TTR in plasma was immunoprecipitated by sheep anti-human prealbumin polyclonal antibody; tissue Precision Biologic Inc., Nova Scotia, Canada
Nature of the test: 125I-T4 displacement assay in neat normal human plasma. In kind it is binding. The note with it: neat normal human plasma; 4-parameter logistic fit. From the text: The assay was adapted from one described previously. Briefly, test ligand and ^125I-T4 (Perkin Elmer Inc., Waltham, MA) were mixed with undiluted normal human reference plasma (Precision Biologic Inc., Nova Scotia, Canada). The TTR in plasma was immunoprecipitated by sheep anti-human prealbumin polyclonal antibody (The Binding Site Group Ltd., Birmingham, UK). The immunoprecipitate was washed with buffer and their radioactivity measured with a 2470 WIZARD automatic gamma counter (Perkin Elmer Inc., Waltham, MA). […] Percentage of total radioligand binding for samples of different ligand concentration was then calculated as follows: […]
To calculate IC50 values, percentage of total radioligand binding at different concentration points were entered in SigmaPlot™ 11.0. Titration curves were done in triplicates with a minimum of 5 data points fitted by 4-Parameter Logistic Function.

Turning to `c1ccc2c(-c3cn[nH]c3)ccnc2c1` [SFL001535, 4-(3H-pyrazol-4-yl)quinoline], the “binding to TTR by induced CD” value at TTR is on record as “confirmed”. For the same molecule, the IC50 (usually the concentration needed to halve the response being measured) in test [1] came to 34.5 ± 12.4 µM.
